Data taken from patent publication US7893256B2, “Azabicycloalkane compounds” (Theravance, Inc., priority 2003, dated 2011).

Legend:
[1] = molecular target: T1, hM2 receptor (Homo sapiens, UniProt P08172); test: Blockade of agonist-mediated [35S]GTPγS binding (Assay Test Procedure D, B); format: biochemical; conditions: CHO-K1 cells expressing the hM2 receptor; read-out: Ki value for blockade of oxotremorine-stimulated [35S]GTPγS binding
T1 construct: expressed in transfected cells; host or cells: CHO-K1 cells
T1 sequence (P08172 1-466): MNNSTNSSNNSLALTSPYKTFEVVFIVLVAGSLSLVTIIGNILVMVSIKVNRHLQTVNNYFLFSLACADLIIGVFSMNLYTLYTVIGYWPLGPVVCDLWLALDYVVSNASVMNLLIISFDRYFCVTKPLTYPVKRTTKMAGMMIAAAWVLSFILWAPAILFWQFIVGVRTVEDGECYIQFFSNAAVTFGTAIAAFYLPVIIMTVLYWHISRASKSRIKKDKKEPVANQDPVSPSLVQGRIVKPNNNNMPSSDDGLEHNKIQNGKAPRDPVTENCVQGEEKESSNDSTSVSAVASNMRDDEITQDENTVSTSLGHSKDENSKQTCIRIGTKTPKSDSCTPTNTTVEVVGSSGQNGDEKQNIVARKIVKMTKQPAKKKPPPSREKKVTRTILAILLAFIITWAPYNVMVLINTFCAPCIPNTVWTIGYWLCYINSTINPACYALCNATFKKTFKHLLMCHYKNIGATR
Description: In a second functional assay, the functional potency of test compounds was determined by measuring the ability of the compounds to block oxotremorine-stimulated [^35S]GTPγS binding in CHO-K1 cells expressing the hM2 receptor.
At the time of use, frozen membranes were thawed and then diluted in assay buffer with a final target tissue concentration of 5-10 μg protein per well. The membranes were briefly homogenized using a Polytron PT-2100 tissue disrupter and then added to the assay plates.
The EC90 value (effective concentration for 90% maximal response) for stimulation of [^35S]GTPγS binding by the agonist oxotremorine was, determined in each experiment.
To determine the ability of a test compound to inhibit oxotremorine-stimulated [^35S]GTPγS binding, the following was added to each well of 96 well plates: […] of assay buffer with [^35S]GTPγS (0.4 nM), 25 μL of oxotremorine (EC90) and GDP (3 uM), 25 μL of diluted test compound and 25 μL CHO cell membranes expressing the hM2 receptor. […] Microscint-20 scintillation liquid (50 μL) was added to each well, and each plate was sealed and radioactivity counted on a Topcounter (PerkinElmer). Data were analyzed by nonlinear regression analysis with the GraphPad Prism Software package (GraphPad Software, Inc., San Diego, Calif.) using the non-linear regression, one-site competition equation. […]

[2] = molecular target: T2, M3 muscarinic receptor (hM3) (Homo sapiens, UniProt P20309); test: Radioligand binding assay for muscarinic receptors (Assay Test Procedure B); conditions: radioligand displacement, CHO cell membranes, [3H]-NMS
T2 construct: expressed in transfected cells; membranes
T2 sequence (P20309 whole entry): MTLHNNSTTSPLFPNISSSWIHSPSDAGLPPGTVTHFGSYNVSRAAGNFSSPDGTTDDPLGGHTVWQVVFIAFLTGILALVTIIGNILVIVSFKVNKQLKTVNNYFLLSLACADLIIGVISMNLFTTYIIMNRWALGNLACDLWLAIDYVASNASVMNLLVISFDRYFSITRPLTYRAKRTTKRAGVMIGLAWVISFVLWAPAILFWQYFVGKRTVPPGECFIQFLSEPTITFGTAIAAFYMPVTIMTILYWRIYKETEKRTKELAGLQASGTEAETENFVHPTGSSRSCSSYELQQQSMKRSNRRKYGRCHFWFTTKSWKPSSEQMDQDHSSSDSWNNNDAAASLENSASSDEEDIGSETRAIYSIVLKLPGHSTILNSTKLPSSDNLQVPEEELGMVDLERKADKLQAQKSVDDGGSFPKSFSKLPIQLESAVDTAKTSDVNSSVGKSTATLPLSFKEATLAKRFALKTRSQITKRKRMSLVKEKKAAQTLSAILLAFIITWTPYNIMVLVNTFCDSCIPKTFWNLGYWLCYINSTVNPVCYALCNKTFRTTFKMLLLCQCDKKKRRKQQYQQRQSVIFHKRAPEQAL
Description: CHO cell lines stably expressing cloned human hM1, hM2, hM3 and hM4 muscarinic receptor subtypes, respectively, were grown to near confluency in HAM's F-12 media supplemented with 10% FBS and 250 μg/mL Geneticin. The cells were grown in a 5% CO2, 37° C. incubator and lifted with 2 mM EDTA in dPBS. Cells were collected by 5 minute centrifugation at 650×g, and cell pellets were either stored frozen at −80° C. or membranes were prepared immediately for use. For membrane preparation, cell pellets were resuspended in lysis buffer and homogenized with a Polytron PT-2100 tissue disrupter (Kinematica AG; 20 seconds×2 bursts). Crude membranes were centrifuged at 40,000×g for 15 minutes at 4° C. […] The protein concentration of the membrane suspension was determined by the method described in Lowry et al., 1951, Journal of Biochemistry, 193, 265. […]
Radioligand binding assays for cloned human muscarinic receptors were performed in 96-well microtiter plates in a total assay volume of 100 μL. […] Filter plates were rinsed three times with wash buffer (10 mM HEPES) to remove unbound radioactivity. […] The plates were then counted in a PerkinElmer Topcount liquid scintillation counter (PerkinElmer Inc., Wellesley, Mass.). Binding data were analyzed by nonlinear regression analysis with the GraphPad Prism Software package (GraphPad Software, Inc., San Diego, Calif.) using the one-site competition model. […]

Structure (SMILES): C[N+]1(CCCCCCCCCNC[C@H](O)c2ccc(O)c3[nH]c(=O)ccc23)C2CC(OC(=O)C(O)(c3cccs3)c3cccs3)CC1C1OC12.C[N+]1(CCCCCCCCCNC[C@H](O)c2ccc(O)c3[nH]c(=O)ccc23)C2CC(OC(=O)C(O)(c3cccs3)c3cccs3)CC1C1OC12.O=C([O-])C(F)(F)F.O=C([O-])C(F)(F)F (stereo partly drawn) [Example 1, 7-(2-Hydroxy-2,2-dithiophen-2-ylacetoxy)-9-{9-[(R)-2-hydroxy-2-(8-hydroxy-2-oxo-1,2-dihydroquinolin-5-yl)ethylamino]nonyl}-9-methyl-3-oxa-9-azonia-tricyclo[3.3.1.0^2,4]nonane Ditrifluoroacetate]
- Ki [1]: < 50 nM
- Ki [2]: < 50 nM
